{"source": "patent US8022086B2", "about": "“Therapeutic agent for glomerular disease” (Kowa Co., Ltd., priority 2004, dated 2011)", "tested_on": "rat model of glomerular basement membrane (GBM) nephritis", "assay": "Pharmacological test employing rat model of glomerular basement membrane (GBM) nephritis: urinary total protein excretion", "type": "in vivo, Wistar male rats", "settings": "anti-GBM antibody-induced nephritis rats, repeated oral administration for two weeks; for 18-hour urinary total protein excretion: pitavastatin calcium 30 mg/kg, candesartan cilexetil 3 mg/kg, control group 316, N=7; for 18-hour urinary total protein excretion compared with control group (significance): versus no drug administration group", "experimental": "Wistar male rats (six weeks old, purchased from Japan Laboratory Animals, Inc.) were quarantined and acclimatized for four days, and employed for the test. Firstly, a rat GBM rabbit IgG antibody was prepared, and then an antibody solution was adjusted with saline upon use to be 31 mg IgG antibody/mL saline. Thereafter, each of the rats was fixated under unanesthetized conditions, and the antibody solution was intravenously administered (1 mL/kg) through the tail vein, whereby progressive renal disorder was induced. The resultant rats were divided into four groups (N=7 for each), and immediately thereafter, the below-described test was carried out. […] In the drug administration groups, the respective drugs were repeatedly orally administered for two weeks. In each of the groups, after completion of two-week drug administration, urine was collected from each rat for 18 hours in a metabolic cage (Product of […] Co., Ltd.), and urinary total protein excretion was measured."}
{"smiles": "CCOc1nc2cccc(C(=O)OC(C)OC(=O)OC3CCCCC3)c2n1Cc1ccc(-c2ccccc2-c2nnn[nH]2)cc1", "note": "(stereo not shown) [candesartan cilexetil, 1-(cyclohexyloxycarbonyloxy)ethyl 2-ethoxy-1-[[2′-(1H-tetrazol-5-yl)biphenyl-4-yl]methyl]-1H-benzimidazole-7-carboxylate]", "values": [{"measurement": "18-hour urinary total protein excretion", "result": 92, "unit": "mg/18 h/kg"}, {"measurement": "18-hour urinary total protein excretion compared with control group (significance)", "result": "lower, but not significantly lower"}]}
{"smiles": "O=C(O)C[C@H](O)C[C@H](O)/C=C/c1c(C2CC2)nc2ccccc2c1-c1ccc(F)cc1", "note": "[pitavastatin calcium, (3R, 5S, 6B)-7-[2-cyclopropyl-4-(4-fluorophenyl)-3-quinolyl]-3,5-dihydroxy-6-heptenoic acid]", "values": [{"measurement": "18-hour urinary total protein excretion", "result": 138, "unit": "mg/18 h/kg"}, {"measurement": "18-hour urinary total protein excretion compared with control group (significance)", "result": "lower, but not significantly lower"}]}
